In patent EP1199304A1, “Bicyclic compounds and pharmaceutical composition containing tricyclic compound for treating or preventing sleep disorders” (Takeda Chemical Industries, Ltd., priority 1997, dated 1997) one finds IC50 data, which are given here for twelve compounds.

Molecules are shown by their SMILES.

For this experiment, the target named is melatonin receptor. The experiment is described as follows: Inhibition of 2-[125I]iodomelatonin binding (forebrain membrane homogenate). The arrangement: species or system chicken (white leghorn). The following applies: forebrains of 7-day-old chicken; 80 pM 2-[^125I]iodomelatonin; 90 minutes at 25°C; non-specific binding with 10^-5M melatonin; log-probit analysis; read-out: IC50 (nM), Action of inhibiting 2-[^125I]iodomelatonin binding. The protocol: Inhibition of 2-[^125I]iodomelatonin binding activity
The forebrains of 7-day-old chicken (white leghorn) were homogenized with ice-cold assay buffer (50 mM Tris-HCl, pH 7.7 at 25°C) and centrifuged at 44,000 x g for 10 minutes at 4°C. The pellet was washed once with the same buffer and storred at -30°C until use. For the assay, the frozen tissue pellet was thawed and homogenized with the assay buffer to make a protein concentration of 0.3 - 0.4 mg/ml. An 0.4 ml aliquot of this homogenate was incubated with a test compound and 80 pM 2-[^125I]iodomelatonin in a total volume of 0.5 ml for 90 minutes at 25°C. The reaction was terminated by adding 3 ml of ice-cold assay buffer immediately followed by vaccum filtration on Whatman GF/B which was further washed twice with 3 ml of ice-cold assay buffer. The radioactivity on the filter was determined by means of γ-counter. […] The 50% inhibiting concentration (IC50) was determined by the log-probit analysis.
Regarding `CCC(=O)NCCc1c[nH]c2ccc3c(c12)CCCO3` [Example 4, N-[2-(3,7,8,9-tetrahydropyrano[3,2-e]indol-1-yl)ethyl]propionamide], the half-maximal inhibitory concentration (IC50) worked out at 0.13 nM.
Turning to `CCC(=O)NCCC1=CCc2ccc3c(c21)CCO3` [Example 15, N-[2-(1,6-dihydro-2H-indeno[5,4-b]furan-8-yl)-ethyl]propionamide], the IC50 worked out at 0.1 nM.
In the case of `CCCC(=O)NCCc1c[nH]c2ccc3c(c12)CCCO3` [Example 5, N-[2-(3,7,8,9-tetrahydropyrano[3,2-e]indol-1-yl)ethyl]butyramide], the IC50 came out at 0.082 nM.
The figure for `CCC(=O)NCC[C@@H]1CCc2ccc3c(c21)CCO3` [Example 11, (S)-N-[2-(1,6,7,8-tetrahydro-2H-indeno[5,4-b]-furan-8-yl)ethyl]propionamide] is 0.048 nM; for `CC(=O)NCCC1CCc2ccc3c(c21)CCO3` (stereo not drawn) [Example 1, N-[2-(1,6,7,8-tetrahydro-2H-indeno[5,4-b]furan-8-yl)ethyl]acetamide] it is 0.28 nM; for `CC(=O)NCCC1=CCc2ccc3c(c21)CCO3` [Example 14, N-[2-(1,6-dihydro-2H-indeno[5,4-b]furan-8-yl)ethyl]acetamide] it is 0.24 nM.
Take `CCCC(=O)NCCC1CCc2ccc3c(c21)CCO3` (stereo not drawn) [Example 13, N-[2-(1,6,7,8-tetrahydro-2H-indeno[5,4-b]furan-8-yl)ethyl]butyramide]: the IC50 is 0.12 nM.
The same measure for `CCCC(=O)NCCC1CNc2ccc3c(c21)CCCO3` (stereo not drawn) [Example 8, N-[2-(1,2,3,7,8,9-hexahydropyrano[3,2-e]indol-1-yl)ethyl]butyramide]: 0.22 nM; for `CC(=O)NCCc1c[nH]c2ccc3c(c12)CCCO3` [Example 3, N-[2-(3,7,8,9-tetrahydropyrano[3,2-e]indol-1-yl)ethyl]acetamide]: 0.46 nM; for `CCC(=O)NCCC1CCc2ccc3c(c21)CCO3` (stereo not drawn) [Example 2, N-[2-(1,6,7,8-tetrahydro-2H-indeno[5,4-b]furan-8-yl)ethyl]propionamide]: 0.13 nM.
Take `CCC(=O)NCCC1CNc2ccc3c(c21)CCCO3` (stereo not drawn) [Example 7, N-[2-(1,2,3,7,8,9-hexahydropyrano[3,2-e]indol-1-yl)ethyl]propionamide]: the IC50 amounted to 0.46 nM.
The same measure for `CCCC(=O)NCCC1=CCc2ccc3c(c21)CCO3` [Example 16, N-[2-(1,6-dihydro-2H-indeno[5,4-b]furan-8-yl)-ethyl]butyramide]: 0.095 nM.

In general, IC50 refers to the concentration needed to halve the response being measured.
